Results published in the supplement of paper PMC10307832.

Columns and labels:
Experiment in all cases: relative viability (nuclei count vs DMSO), 5 days (fraction); higher = more cells survive
[1] = tested on: NCI-H522
In short: (§1)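 Relative viability was taken as the ratio of nuclei in treated wells to nuclei in vehicle wells. Lung cancer cell lines in 1536-well plates received compounds by pin tool one day after seeding, either one drug alone or a fixed anchor-drug dose plus five library-drug doses (not always all listed) in √10 steps. Nuclei were counted on 4× images after 5 days of treatment, and values are medians of duplicate plates.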

[2] = tested on: NCI-H1563
In short: as §1

[3] = tested on: NCI-H1623
In short: as §1

[4] = tested on: SW 900
In short: as §1

[5] = tested on: NCI-H2342
In short: as §1

[6] = tested on: NCI-H1648
In short: as §1

[7] = tested on: A549
In short: as §1

[8] = tested on: NCI-H1703
In short: as §1

[9] = tested on: EBC-1
In short: as §1

[10] = tested on: IA-LM
In short: as §1

[11] = tested on: Calu-6
In short: as §1

[12] = tested on: NCI-H1299
In short: as §1

Cc1cnc(-c2cnc(NCCNc3ccc(C#N)cn3)nc2-c2ccc(Cl)cc2Cl)[nH]1 + COc1cccc2cc(-c3nc([C@H]4CC[C@H](C(=O)O)CC4)n4ncnc(N)c34)[nH]c12 [OSI-027] (partner 0.5 µM)
relative viability ([1]; first compound 0.08 µM): 0.653
relative viability ([1]; first compound 0.253 µM): 0.705
relative viability ([1]; first compound 0.8 µM): 0.647
relative viability ([1]; first compound 2.53 µM): 0.885
relative viability ([2]; first compound 0.08 µM): 0.798
relative viability ([2]; first compound 0.253 µM): 0.733
relative viability ([2]; first compound 0.8 µM): 0.758
relative viability ([2]; first compound 2.53 µM): 0.78
relative viability ([3]; first compound 0.08 µM): 0.478
relative viability ([3]; first compound 0.253 µM): 0.417
relative viability ([3]; first compound 0.8 µM): 0.413
relative viability ([3]; first compound 2.53 µM): 0.48
relative viability ([4]; first compound 0.08 µM): 0.695
relative viability ([4]; first compound 0.253 µM): 0.56
relative viability ([4]; first compound 0.8 µM): 0.502
relative viability ([4]; first compound 2.53 µM): 0.546
relative viability ([5]; first compound 0.08 µM): 0.653
relative viability ([5]; first compound 0.253 µM): 0.546
relative viability ([5]; first compound 0.8 µM): 0.556
relative viability ([5]; first compound 2.53 µM): 0.53
relative viability ([6]; first compound 0.08 µM): 0.24
relative viability ([6]; first compound 0.253 µM): 0.259
relative viability ([6]; first compound 0.8 µM): 0.242
relative viability ([6]; first compound 2.53 µM): 0.289

Cc1cnc(-c2cnc(NCCNc3ccc(C#N)cn3)nc2-c2ccc(Cl)cc2Cl)[nH]1 + Cc1cc(Nc2cc(N3CCN(C)CC3)nc(Sc3ccc(NC(=O)C4CC4)cc3)n2)n[nH]1 [Tozasertib] (partner 0.1 µM)
relative viability ([1]; first compound 0.08 µM): 0.629
relative viability ([1]; first compound 0.8 µM): 0.506
relative viability ([1]; first compound 2.53 µM): 0.591
relative viability ([3]; first compound 0.08 µM): 0.477
relative viability ([3]; first compound 0.253 µM): 0.426
relative viability ([3]; first compound 0.8 µM): 0.414
relative viability ([3]; first compound 2.53 µM): 0.417
relative viability ([4]; first compound 0.08 µM): 0.667
relative viability ([4]; first compound 0.253 µM): 0.511
relative viability ([4]; first compound 0.8 µM): 0.439
relative viability ([4]; first compound 2.53 µM): 0.415
relative viability ([5]; first compound 0.08 µM): 0.519
relative viability ([5]; first compound 0.253 µM): 0.513
relative viability ([5]; first compound 0.8 µM): 0.507
relative viability ([5]; first compound 2.53 µM): 0.505
relative viability ([6]; first compound 0.08 µM): 0.487
relative viability ([6]; first compound 0.253 µM): 0.502
relative viability ([6]; first compound 0.8 µM): 0.465
relative viability ([6]; first compound 2.53 µM): 0.52

O=c1[nH]c2ccccc2n1C1CCN(CCCC(c2ccc(F)cc2)c2ccc(F)cc2)CC1 [Pimozide] + COc1cccc2cc(-c3nc([C@H]4CC[C@H](C(=O)O)CC4)n4ncnc(N)c34)[nH]c12 [OSI-027] (partner 0.5 µM)
relative viability ([1]; first compound 0.08 µM): 0.682
relative viability ([1]; first compound 0.253 µM): 0.586
relative viability ([1]; first compound 0.8 µM): 0.54
relative viability ([1]; first compound 2.53 µM): 0.829
relative viability ([1]; first compound 8 µM): 0.682
relative viability ([2]; first compound 0.08 µM): 0.75
relative viability ([2]; first compound 0.253 µM): 0.767
relative viability ([2]; first compound 0.8 µM): 0.817
relative viability ([2]; first compound 2.53 µM): 0.664
relative viability ([2]; first compound 8 µM): 0.719
relative viability ([3]; first compound 0.08 µM): 0.348
relative viability ([3]; first compound 0.253 µM): 0.48
relative viability ([3]; first compound 0.8 µM): 0.374
relative viability ([3]; first compound 2.53 µM): 0.416
relative viability ([3]; first compound 8 µM): 0.389
relative viability ([4]; first compound 0.08 µM): 0.879
relative viability ([4]; first compound 0.253 µM): 0.581
relative viability ([4]; first compound 0.8 µM): 0.273
relative viability ([4]; first compound 2.53 µM): 0.475
relative viability ([4]; first compound 8 µM): 0.384
relative viability ([5]; first compound 0.08 µM): 0.63
relative viability ([5]; first compound 0.253 µM): 0.623
relative viability ([5]; first compound 0.8 µM): 0.615
relative viability ([5]; first compound 2.53 µM): 0.543
relative viability ([5]; first compound 8 µM): 0.599
relative viability ([6]; first compound 0.08 µM): 0.275
relative viability ([6]; first compound 0.253 µM): 0.264
relative viability ([6]; first compound 0.8 µM): 0.272
relative viability ([6]; first compound 8 µM): 0.279

O=c1[nH]c2ccccc2n1C1CCN(CCCC(c2ccc(F)cc2)c2ccc(F)cc2)CC1 [Pimozide] + COc1cc2c(Oc3ccc(NC(=O)C4(C(=O)Nc5ccc(F)cc5)CC4)cc3F)ccnc2cc1OCCCN1CCOCC1 [Foretinib] (partner 0.25 µM)
relative viability ([2]; first compound 0.08 µM): 0.969
relative viability ([2]; first compound 0.253 µM): 0.849
relative viability ([2]; first compound 0.8 µM): 0.832
relative viability ([2]; first compound 2.53 µM): 0.877
relative viability ([2]; first compound 8 µM): 0.832
relative viability ([3]; first compound 0.08 µM): 0.505
relative viability ([3]; first compound 0.253 µM): 0.879
relative viability ([3]; first compound 0.8 µM): 0.81
relative viability ([3]; first compound 2.53 µM): 0.88
relative viability ([3]; first compound 8 µM): 0.889
relative viability ([7]; first compound 0.08 µM): 0.891
relative viability ([7]; first compound 0.253 µM): 0.988
relative viability ([7]; first compound 0.8 µM): 1.04
relative viability ([7]; first compound 2.53 µM): 0.949
relative viability ([7]; first compound 8 µM): 0.728
relative viability ([4]; first compound 0.08 µM): 0.877
relative viability ([4]; first compound 0.253 µM): 0.956
relative viability ([4]; first compound 0.8 µM): 0.668
relative viability ([4]; first compound 2.53 µM): 0.746
relative viability ([4]; first compound 8 µM): 1.03
relative viability ([5]; first compound 0.08 µM): 0.92
relative viability ([5]; first compound 0.253 µM): 0.973
relative viability ([5]; first compound 0.8 µM): 0.931
relative viability ([5]; first compound 2.53 µM): 0.975
relative viability ([5]; first compound 8 µM): 1.07
relative viability ([8]; first compound 0.08 µM): 0.394
relative viability ([8]; first compound 0.253 µM): 0.272
relative viability ([8]; first compound 0.8 µM): 0.375
relative viability ([8]; first compound 2.53 µM): 0.37
relative viability ([8]; first compound 8 µM): 0.336
relative viability ([9]; first compound 0.08 µM): 0.0944
relative viability ([9]; first compound 0.253 µM): 0.102
relative viability ([9]; first compound 0.8 µM): 0.0973
relative viability ([9]; first compound 2.53 µM): 0.104
relative viability ([9]; first compound 8 µM): 0.12
relative viability ([10]; first compound 0.08 µM): 1.16
relative viability ([10]; first compound 0.253 µM): 1.15
relative viability ([10]; first compound 0.8 µM): 1.16
relative viability ([10]; first compound 2.53 µM): 1.19
relative viability ([10]; first compound 8 µM): 1.17
relative viability ([11]; first compound 0.08 µM): 0.887
relative viability ([11]; first compound 0.253 µM): 0.925
relative viability ([11]; first compound 0.8 µM): 0.819
relative viability ([11]; first compound 2.53 µM): 0.914
relative viability ([11]; first compound 8 µM): 0.822
relative viability ([12]; first compound 0.08 µM): 1.11
relative viability ([12]; first compound 0.253 µM): 1.12
relative viability ([12]; first compound 0.8 µM): 1.07
relative viability ([12]; first compound 2.53 µM): 1.07
relative viability ([12]; first compound 8 µM): 1.04

Cc1cnc(-c2cnc(NCCNc3ccc(C#N)cn3)nc2-c2ccc(Cl)cc2Cl)[nH]1 + COc1cc2c(Oc3ccc(NC(=O)C4(C(=O)Nc5ccc(F)cc5)CC4)cc3F)ccnc2cc1OCCCN1CCOCC1 [Foretinib] (partner 0.25 µM)
relative viability ([2]; first compound 0.08 µM): 0.925
relative viability ([2]; first compound 0.253 µM): 0.885
relative viability ([2]; first compound 0.8 µM): 0.951
relative viability ([2]; first compound 2.53 µM): 1.01
relative viability ([3]; first compound 0.08 µM): 0.785
relative viability ([3]; first compound 0.253 µM): 0.828
relative viability ([3]; first compound 0.8 µM): 0.821
relative viability ([3]; first compound 2.53 µM): 0.849
relative viability ([7]; first compound 0.08 µM): 0.984
relative viability ([7]; first compound 0.253 µM): 0.963
relative viability ([7]; first compound 0.8 µM): 1.02
relative viability ([7]; first compound 2.53 µM): 0.451
relative viability ([4]; first compound 0.08 µM): 0.781
relative viability ([4]; first compound 0.253 µM): 0.78
relative viability ([4]; first compound 0.8 µM): 0.789
relative viability ([4]; first compound 2.53 µM): 0.717
relative viability ([5]; first compound 0.08 µM): 0.974
relative viability ([5]; first compound 0.253 µM): 0.903
relative viability ([5]; first compound 0.8 µM): 1.03
relative viability ([5]; first compound 2.53 µM): 1.07
relative viability ([8]; first compound 0.08 µM): 0.333
relative viability ([8]; first compound 0.253 µM): 0.383
relative viability ([8]; first compound 0.8 µM): 0.362
relative viability ([8]; first compound 2.53 µM): 0.433
relative viability ([9]; first compound 0.08 µM): 0.0986
relative viability ([9]; first compound 0.253 µM): 0.105
relative viability ([9]; first compound 0.8 µM): 0.102
relative viability ([9]; first compound 2.53 µM): 0.112
relative viability ([10]; first compound 0.08 µM): 0.95
relative viability ([10]; first compound 0.253 µM): 1.09
relative viability ([10]; first compound 0.8 µM): 1.44
relative viability ([10]; first compound 2.53 µM): 0.988
relative viability ([11]; first compound 0.08 µM): 0.906
relative viability ([11]; first compound 0.253 µM): 0.826
relative viability ([11]; first compound 0.8 µM): 0.874
relative viability ([11]; first compound 2.53 µM): 0.784
relative viability ([12]; first compound 0.08 µM): 1.11
relative viability ([12]; first compound 0.253 µM): 1.05
relative viability ([12]; first compound 0.8 µM): 1.09
relative viability ([12]; first compound 2.53 µM): 1.06
